Molecular target: β-tubulin (Sus scrofa, UniProt P02554+Q2XVP4)
Assay: X-ray crystal structure
Format: binding

Sequence of β-tubulin (Q2XVP4 whole entry): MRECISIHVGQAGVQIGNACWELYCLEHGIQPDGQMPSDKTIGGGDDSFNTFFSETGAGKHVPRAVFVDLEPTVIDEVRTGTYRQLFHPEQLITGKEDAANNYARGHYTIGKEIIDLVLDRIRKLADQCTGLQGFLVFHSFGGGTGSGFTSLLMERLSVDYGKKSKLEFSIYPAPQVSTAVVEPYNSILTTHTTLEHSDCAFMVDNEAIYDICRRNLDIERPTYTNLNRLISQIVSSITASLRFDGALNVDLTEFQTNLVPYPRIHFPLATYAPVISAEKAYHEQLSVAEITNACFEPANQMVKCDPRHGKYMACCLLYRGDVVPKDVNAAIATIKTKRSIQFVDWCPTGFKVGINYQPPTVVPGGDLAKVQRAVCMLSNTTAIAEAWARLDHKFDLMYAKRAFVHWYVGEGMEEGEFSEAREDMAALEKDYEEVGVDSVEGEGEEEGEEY
Sequence of β-tubulin (P02554 whole entry): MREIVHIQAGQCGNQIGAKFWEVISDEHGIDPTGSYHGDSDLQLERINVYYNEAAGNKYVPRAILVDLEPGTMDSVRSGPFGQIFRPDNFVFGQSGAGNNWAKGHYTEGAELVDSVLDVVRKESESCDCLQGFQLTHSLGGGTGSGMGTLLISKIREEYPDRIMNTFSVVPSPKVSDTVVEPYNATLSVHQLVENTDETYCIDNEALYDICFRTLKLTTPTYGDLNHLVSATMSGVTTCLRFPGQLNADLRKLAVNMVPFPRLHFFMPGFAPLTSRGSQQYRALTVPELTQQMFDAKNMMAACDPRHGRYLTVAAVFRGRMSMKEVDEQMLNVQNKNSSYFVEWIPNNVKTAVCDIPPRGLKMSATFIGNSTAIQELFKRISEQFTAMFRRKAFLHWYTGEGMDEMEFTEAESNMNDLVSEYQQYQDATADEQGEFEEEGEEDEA

**Q.** How did the Kd turn out when `CCCCc1ccc2[nH]c(NC(=O)OC)nc2c1` [parbendazole] was run?
**A.** 3.39 µM
